IC50 data for 10 compounds are collected here from BindingDB's records for PubMed 30282319 (Polytechnic Institute of Braganca, 2018).

In brackets after ≈: the same amount, converted by molar mass.

The target in the assay is alpha-glucosidase (Saccharomyces cerevisiae). Kind of assay: Inhibition of Saccharomyces cerevisiae alpha-glucosidase assessed as release of p-nitrophenol using pNPG as substrate preincubated for 15 mins followed by substrate addition and measured after 15 mins by plate reader analysis.
In the case of `COc1c(O)cc2oc3ccc(O)cc3c(=O)c2c1O`, the 50% inhibitory concentration (IC50) worked out at 7.6 µg/mL (≈ 27.7 µM).
For `COc1cc(OC)c2c(=O)c3c(O)c(OC)ccc3oc2c1O` the value was 59 µg/mL (≈ 185 µM); for `COc1c(O)cc(O)c2c(=O)c3cc(O)ccc3oc12`, 13 µg/mL (≈ 47.4 µM); for `COc1cc(O)c2c(=O)c3cc(O)ccc3oc2c1OC`, 13 µg/mL (≈ 45.1 µM).
For `COc1c(O)cc2oc3ccc(O)c(OC)c3c(=O)c2c1O` the value was 63 µg/mL (≈ 207 µM).
For `COc1ccc2oc3ccc(O)cc3c(=O)c2c1` the value was 77 µg/mL (≈ 318 µM); for `COc1ccc2oc3ccc(O)cc3c(=O)c2c1OC`, 49 µg/mL (≈ 180 µM).
With `O=c1c2cc(O)ccc2oc2cc(O)cc(O)c12` [1,3,7-trihydroxy-9H-xanthen-9-one], the 50% inhibitory concentration (IC50) amounted to 3.2 µg/mL (≈ 13.1 µM).
For `O=c1c2cc(O)ccc2oc2cccc(O)c12` [CHEBI:4946] the value was 36 µg/mL (≈ 158 µM); for `COc1ccc(O)c2c(=O)c3cc(O)ccc3oc12` [CHEBI:67553], 28 µg/mL (≈ 108 µM).
